Literature values, collected in patent US4983400A, “Controlled release combination of carbidopa/levodopa” (priority 1989, dated 1991).

Experiments:
[1] = in vivo

Compound: N[C@@H](Cc1ccc(O)c(O)c1)C(=O)O [levodopa]
- adverse reactions [1]: severe adverse reactions, especially emesis, were experienced
- effect of high protein meals on plasma levodopa levels (human, in vivo, iv): without affecting plasma levodopa levels
- motor oscillations (intravenous): reduces motor oscillations
- effect of high protein meals on response (intravenous, high protein meals): decline in response
- residual symptoms at optimal response (intravenous, some patients): either tremor and bradykinesia or mobility with dyskinesia
